According to ChEMBL document CHEMBL1129165, “6-Deoxy-6-hydroxymethyl scyllo-inositol 1,2,4-trisphosphate: A potent agonist at the inositol 1,4,5-trisphosphate receptor” (Bioorg Med Chem Lett, 1996):

Species on record: Oryctolagus cuniculus
Assay: Compound was tested for its ability to release [Ca2+] from permeabilised rabbit platelets.
Type: functional, organism-based

EC50	EC50 (Oryctolagus cuniculus)	Compound
1670 nM	–	O=P(O)(O)O[C@H]1C(O)[C@@H](OP(=O)(O)O)[C@H](OP(=O)(O)O)[C@@H](O)C1O (single isomer, unassigned) [INS(1,4,5)P3]
–	440 nM	O=P(O)(O)OC1[C@@H](O)C(CO)C(OP(=O)(O)O)[C@H](OP(=O)(O)O)[C@@H]1O (stereo partly drawn)
400 nM	–	O=P(O)(O)O[C@@H]1[C@@H](O)[C@@H](O)[C@@H](OP(=O)(O)O)C(O)[C@H]1OP(=O)(O)O (single isomer, unassigned) [INS(1,4,5)P3]
